Tested on: cardiomyocytes from double knock-in human iPS cell lines (mCherry at TNNI3 locus)
Assay: Experimental Example 1: mCherry (TNNI3 reporter) immunostaining measured by high contents screening
Type: cell-based
Parameters: key to average fluorescent intensity (at 30 μM): —: The symbol in Table 2 means that the average fluorescent intensity cannot be evaluated due to cell decrease
Conditions: read on 8th day, Alexa 647 anti-mCherry, control well 797
Outline: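 Double knock-in iPS lines (EmGFP at TNNI1, mCherry at TNNI3) differentiated as embryoid bodies in stirred bioreactor at 37 °C, 5% O2: BMP4/activin A/bFGF, then VEGF, IWP-3, dorsomorphin, SB431542, then VEGF alone. On day 14, dissociated cells seeded at 1.0×10^4 cells/well on iMatrix-511 in AK02-based cardiomyocyte medium.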

## O=C1c2ccc(N3CCOCC3)cc2CN1c1ccc2[nH]c(-c3ccc(Br)cc3)nc2c1 [Example 8, 2-(2-(4-bromophenyl)-1H-benzimidazol-5-yl)-5-(morpholin-4-yl)isoindolin-1-one]
Test compound 1 μM added on 3rd and 6th culture days
  average fluorescent intensity (at 1 μM): 985
Test compound 30 μM added on 3rd and 6th culture days
  average fluorescent intensity (at 30 μM): —

— US11401264B2, “Heterocyclic compound” (Orizuru Therapeutics, Inc., priority 2018, dated 2022)
